# Assays:
# [1] = Determination of partition coefficients of phosphines in fluorous biphasic systems (ICP-AAS on phosphorus); assay type: physicochemical; conditions: 0° C., 1:1 mixture (v/v)
# Source text: For applications in fluorous bi-phasic catalysis and for catalyst recycling by fluorous phase extraction techniques an important feature of the fluorous aryl phosphines and the derived catalytic complexes is the partition coefficient P(P=Cfluorous phase/Corganic phase. C=concentration) in fluorous bi-phasic systems.
# 11. Determination of Partition Coefficients
# The partition coefficients were determinded by dissolving a known amount of phosphine (typically between 11 and 60 μmol) in a fluorous biphasic system either consisting of c-C6F11CF3 (2.000±0.002 mL) and n-pentane, n-octane or toluene (2.006±0.002 mL). The resulting mixture was stirred at 25° C. until all solid had dissolved and equilibrated in a water ice bath (1 h). An aliquot (0.500±0.002 mL) was removed from each layer by syringe. Analysis by ICP-AAS on phosphorus gave the amount of phosphine present, with an accuracy of ±0.3 ppm. A conservative estimate of the experimental error in the partition coefficient is ±1 in the last digit.
# [2] = Hydrogenation of 1-octene under single phase conditions in α,α,α-trifluorotoluene
# Protocol: To be able to directly compare the activities of fluorous derivatives H{1,6} and H{1,8} with non-fluorous [P(C6H4-4-SiMe3)3]3RhCl (H{0}) and the conventional Wilkinson catalyst (PPh3)3RhCl, homogeneous hydrogenation of 1-octene were carried out under single phase conditions in the hybrid solvent α,α,α-trifluorotoluene at atmospheric H2 pressures. Highest rates of hydrogen uptake (14.2 mol.L^−1.h^−1) were measured for 1c at relatively high rhodium and olefine concentrations (entry 2, Table 7). Under these conditions a zero-order dependence in [1-octene] was found up to ca 80% conversion resulting in a linear conversion versus time plot. In all other experiments ([Rh]=4.0-8.0 mM, [1-octene]0=1.46 M) rates of hydrogen uptake were lower (<11 mol.L^−1.h^−1) and conversion versus time plots corresponded to a rate law -d[1-octene]/dt=kobs.[1-octene] for >98% conversion allowing to evaluate catalyst activity in terms of the observed first order rate constant kobs. Since for these experiments the rates of dihydrogen uptake were well below the maximum value obtained in entry 2, diffusion limitation of H2 can be excluded. In addition to kobs, turn over frequencies (TOF in mol.mol^−1.h^−1) were derived from the tangent of a 4^thorder polynomal fit to conversion versus time plots at 25% conversion and serve as a measure of catalyst activity independent of any assumed kinetic relationship with substrate.
# Catalytic reactions were carried out under single phase conditions in CF3C6H5 at 80° C. under 1 bar of hydrogen pressure. After >90% conversion (monitored by the H2 uptake) volatiles were distilled off and analyzed by GC. Activities (TOF) were determined for 25% conversion.
# [3] = [Rh] 4.0 mM, [1-octene] 1.46 M, T = 80° C., p(H2) = 1 bar, α,α,α-trifluorotoluene
# [4] = [Rh] 8.0 mM, [1-octene] 2.92 M, T = 80° C., p(H2) = 1 bar, α,α,α-trifluorotoluene
Compound,"Fluorous partition coefficient P = cfluorous phase/corganic phase, n-octane/c-C6F11CF3 [1]","Fluorous partition coefficient P = cfluorous phase/corganic phase, n-pentane/c-C6F11CF3 [1]","Fluorous partition coefficient P = cfluorous phase/corganic phase, toluene/c-C6F11CF3 [1]",also measured
"C[Si](C)(CCC(F)(F)C(F)(F)C(F)(F)C(F)(F)C(F)(F)C(F)(F)C(F)(F)C(F)(F)F)c1ccc(P(c2ccc([Si](C)(C)CCC(F)(F)C(F)(F)C(F)(F)C(F)(F)C(F)(F)C(F)(F)C(F)(F)C(F)(F)F)cc2)c2ccc([Si](C)(C)CCC(F)(F)C(F)(F)C(F)(F)C(F)(F)C(F)(F)C(F)(F)C(F)(F)C(F)(F)F)cc2)cc1 [D{1,8}]",1.4,0.78,1.06,–
"C[Si](C)(C)c1ccc([PH](c2ccc([Si](C)(C)C)cc2)(c2ccc([Si](C)(C)C)cc2)[Rh]([Cl])([PH](c2ccc([Si](C)(C)C)cc2)(c2ccc([Si](C)(C)C)cc2)c2ccc([Si](C)(C)C)cc2)[PH](c2ccc([Si](C)(C)C)cc2)(c2ccc([Si](C)(C)C)cc2)c2ccc([Si](C)(C)C)cc2)cc1 [H{0}, [P(C6H4-4-SiMe3)3]3RhCl]",–,–,–,"TOF(25%), turn over frequency at 25% conversion [2, 3]: 1610 h⁻¹; TON (mole of olefin/mole of Rh) [2, 3]: 336; conversion [2, 3]: 92%; kobs (first order rate constant) [2, 3]: 7.5(2) h^−1; TOF(25%), turn over frequency at 25% conversion [2, 4]: 1910 h⁻¹; TON (mole of olefin/mole of Rh) [2, 4]: 361; conversion [2, 4]: 99%; kobs (zero order in olefin up to 80% conversion) [2, 4]: ^eZero order in olefin up to 80% conversion, kobs = 14.2(1) mol.L^−1.h^−1.; activity relative to Wilkinson's catalyst ([2]; derived from Table 7): > 1.5 times; Highest rate of hydrogen uptake ([2]; relatively high rhodium and olefine concentrations (entry 2, Table 7)): 14.2 mol/L/h"

# Continued, in another order:
"Fluorous partition coefficient P = cfluorous phase/corganic phase, n-octane/c-C6F11CF3 [1]","Fluorous partition coefficient P = cfluorous phase/corganic phase, n-pentane/c-C6F11CF3 [1]","Fluorous partition coefficient P = cfluorous phase/corganic phase, toluene/c-C6F11CF3 [1]",Compound,also measured
11,3.3,3.8,"C[Si](CCC(F)(F)C(F)(F)C(F)(F)C(F)(F)C(F)(F)C(F)(F)C(F)(F)C(F)(F)F)(CCC(F)(F)C(F)(F)C(F)(F)C(F)(F)C(F)(F)C(F)(F)C(F)(F)C(F)(F)F)c1ccc(P(c2ccc([Si](C)(CCC(F)(F)C(F)(F)C(F)(F)C(F)(F)C(F)(F)C(F)(F)C(F)(F)C(F)(F)F)CCC(F)(F)C(F)(F)C(F)(F)C(F)(F)C(F)(F)C(F)(F)C(F)(F)C(F)(F)F)cc2)c2ccc([Si](C)(CCC(F)(F)C(F)(F)C(F)(F)C(F)(F)C(F)(F)C(F)(F)C(F)(F)C(F)(F)F)CCC(F)(F)C(F)(F)C(F)(F)C(F)(F)C(F)(F)C(F)(F)C(F)(F)C(F)(F)F)cc2)cc1 [D{2,8}]",–
6.6,2.0,3.8,"C[Si](CCC(F)(F)C(F)(F)C(F)(F)C(F)(F)C(F)(F)C(F)(F)F)(CCC(F)(F)C(F)(F)C(F)(F)C(F)(F)C(F)(F)C(F)(F)F)c1ccc(P(c2ccc([Si](C)(CCC(F)(F)C(F)(F)C(F)(F)C(F)(F)C(F)(F)C(F)(F)F)CCC(F)(F)C(F)(F)C(F)(F)C(F)(F)C(F)(F)C(F)(F)F)cc2)c2ccc([Si](C)(CCC(F)(F)C(F)(F)C(F)(F)C(F)(F)C(F)(F)C(F)(F)F)CCC(F)(F)C(F)(F)C(F)(F)C(F)(F)C(F)(F)C(F)(F)F)cc2)cc1 [D{2,6}, P[C6H4Si(CH2CH2C6F13)2Me-4]3]",–
4.8,7.0,1.0,"FC(F)(F)C(F)(F)C(F)(F)C(F)(F)C(F)(F)C(F)(F)C(F)(F)C(F)(F)CC[Si](CCC(F)(F)C(F)(F)C(F)(F)C(F)(F)C(F)(F)C(F)(F)C(F)(F)C(F)(F)F)(CCC(F)(F)C(F)(F)C(F)(F)C(F)(F)C(F)(F)C(F)(F)C(F)(F)C(F)(F)F)c1ccc(P(c2ccc([Si](CCC(F)(F)C(F)(F)C(F)(F)C(F)(F)C(F)(F)C(F)(F)C(F)(F)C(F)(F)F)(CCC(F)(F)C(F)(F)C(F)(F)C(F)(F)C(F)(F)C(F)(F)C(F)(F)C(F)(F)F)CCC(F)(F)C(F)(F)C(F)(F)C(F)(F)C(F)(F)C(F)(F)C(F)(F)C(F)(F)F)cc2)c2ccc([Si](CCC(F)(F)C(F)(F)C(F)(F)C(F)(F)C(F)(F)C(F)(F)C(F)(F)C(F)(F)F)(CCC(F)(F)C(F)(F)C(F)(F)C(F)(F)C(F)(F)C(F)(F)C(F)(F)C(F)(F)F)CCC(F)(F)C(F)(F)C(F)(F)C(F)(F)C(F)(F)C(F)(F)C(F)(F)C(F)(F)F)cc2)cc1 [D{3,8}]",–

# From patent US6458978B1, “Fluorous phosphines and process for their preparation” (Atofina Vlissingen B.V., priority 1998, dated 2002)
